Results as given in the NIST ThermoML archive (doi:10.1016/j.tca.2010.07.017).
± gives the expanded uncertainty stated by the source.

How the values were obtained:
[1] = refractive index (Na D-line) (dimensionless); conditions: 298.15 K; 101.33 kPa; Liquid; Standard Abbe refractometry
[2] = 298.15 K; 101.33 kPa; Liquid; Vibrating tube method

Row | refractive index [1] | mass density [2] [kg/m3] | SMILES
1 | 1.4202 ± 0.0004 | 1028.12 ± 0.11 | C1COCCO1 [1,4-dioxane]
2 | 1.4048 ± 0.0004 | 882.03 ± 0.1 | C1CCOC1 [tetrahydrofuran]

Row | SMILES | refractive index [1] | mass density [2] [kg/m3]
3 | CC(C)=O [acetone] | 1.3563 ± 0.0004 | 784.65 ± 0.12
